IC50 data for 13 compounds are collected here from US5380834A, “Immuno-suppressive agent” (Ishihara Sangyo Kaisha Ltd., priority 1992, dated 1995).

In brackets after ≈: the same amount, converted by molar mass. Where two headings read alike, the source gives them in different places.

The subject of one assay is murine thymocytes. Nature of the assay: Effects on the mitogenic response by murine thymocytes (Con A stimulation, 3H-TdR uptake). In kind it is cell-based, BALB/c murine. The following applies: Mus musculus, Thymocyte, read-out: IC50 value, a (mitogenic response of murine thymocytes). How it is done: Using BALB/c murine thymocytes, the effect of the compound of the formula (I) on the mitogenic response of lymphocytes to the stimulation by concanavalin A (hereinafter referred to simply as Con A, Product No. L-1000, manufactured by Vector Laboratories) was studied. Namely, 4×10^5 murine thymocytes were cultured for 48 hours on a microplate with 96 wells in a RPMI1640 solution containing 10% of a fetal bovine serum (hereinafter referred to simply as a 10% FCS-RPMI solution) together with Con A (5 μg/ml) and the compound of the formula (I) (in an incubator, 5% CO2, at 37° C.). Then, 0.5 μCi of ^3 H-thymidine (hereinafter referred to simply as ^3 H-TdR) was added thereto, and the mixture was further cultured for 4 hours. Then, cells were collected by a cell harvester, and the radioactivity (dpm) of ^3 H-TdR uptaken into cells was measured. Such measured amounts of ^3 H-TdR uptaken into the cells were used as indices of the mitogenic response of the murine thymocytes, and the radioactivity at each concentration (from 0.001 to 1,000 μg/ml) of the compound of the formula (I) was compared with the control value treated solely by Con A, to calculate IC50 value. In these Tables 12 and 13, the results of murine thymocytes are shown by (a).
For the basic procedure of this test, reference was made to Selected methods in cellular immunology, p. 144-146 (translated by Katsuyuki Imai et al., published by Rikogakusha, (1982)).

Assay [1] concerns murine mixed lymphocyte reaction (spleen cells of BALB/c and C57BL/6 mice). Description: Effects on the murine mixed lymphocyte reaction (3H-TdR uptake). In kind it is cell-based. Particulars: Mus musculus, BALB/c + C57BL/6 spleen cells, 48 hours, read-out: IC50 value, b (murine mixed lymphocyte reaction). How it is done:
Using spleen cells of BALB/c and C57BL/6 mice, the effect of the compound of the formula (I) on the murine mixed lymphocyte reaction in both sides, was studied. Namely, spleen cells of both types of mice were mixed in an equal amount of 5×10^5 cells each, and the mixed cells were cultured together with the compound of the formula (I) for 48 hours on a microplate with 96 wells by a 10% FCS-RPMI solution (in an incubator, 5% CO2, at 37° C.). Then, 0.5 μCi of ^3 H-TdR was added thereto, and the mixture was further cultured for from 16 to 18 hours. Then, cells were collected by a cell harvester, and the radioactivity (dpm) of ^3 H-TdR uptaken into the cells, was measured. Such measured amounts of ^3 H-TdR uptaken into the cells were used as indices for the mixed lymphocyte reaction, and the radioactivity at each concentration (from 0.001 to 1,000 μg/ml) of the compound of the formula (I) was compared with the non-treated control value, to calculate the Ic50 value.
For the basic procedure for this test, reference was made to Selected methods in cellular immunology, p. 147-149 (translated by Katsuyuki Imai et al., published by Rikogakusha, (1982)).

The test system of another assay is murine bone mallow cells. Nature of the assay: Effects on the murine bone mallow cells (proliferation, 3H-TdR uptake). In kind it is cell-based, BALB/c mouse. The following applies: Mus musculus. How it is done:
Bone mallow cells were removed from the femur of a BALB/c mouse and suspended in a 10% FCS-RPMI solution. The cell suspension was put into a plastic Petri dish having a diameter of 10 cm and left to stand still (in an incubator, 5% CO2, at 37° C.). Two hours later, only floating cells were recovered, and adhesion cells were removed. 1×10^5 floating cells were cultured for 48 hours together with a 20% culture supernatant of L929 fibroblastoma and the compound of the formula (I) on a microplate with 96 wells by a 10% FCS-RPMI solution (in an incubator, 5% CO2, at 37° C.). Then, 0.5 μCi of ^3 H-TdR was added thereto, and the mixture was further cultured for 4 hours. Then, cells were collected by a cell harvester, and the radioactivity (dpm) of ^3 H-TdR uptaken into the cells, was measured. Such measured amounts of ^3 H-TdR uptaken into the cells were used as indices for the proliferation of bone mallow cells, and the radioactivity at each concentration (from 0.001 to 1,000 μg/ml) of the compound of the formula (I) was compared with the control value where the L929 culture supernatant was added alone, to calculate the IC50 value. In these Tables 12 and 13, the results of the bone mallow cells are shown by (c).
For the basic procedure of this test, reference was made to Seikagakujikken Koza compiled by Japan Biochemistry Association, Vol. 5, p. 266-270 (published by Tokyo Kagaku Dojin in 1986).

In assay [2] the test system is IgGl antibody production from murine spleen B cells. Description: Effects on the IgGl antibody production from murine spleen cells (LPS + IL4). In kind it is cell-based, BALB/c mouse. Particulars: Mus musculus, B-cell, 168 h, read-out: IC50 value, IgGl antibody production. As to the method: (§1) Using murine spleen B cells, the effects of the compound of the formula (I) on the IgGl, IgM and IgE antibody production induced by the stimulation by LPS (lipopolysaccharide; Product No. 520.02051, manufactured by Wako Junyaku) and IL4 (interleukin 4), were studied. Namely, spleen cells of a BALB/c mouse were treated with a murine anti-Thy-1 antibody (obtained from Chiba University) and a rabbit complement (Product No. 3051, manufactured by cedarlane) to remove T cells, and 3×10^5 spleen B cells were cultured for 7 days together with 10 μg/ml of LPS, 100 U/ml of mouse-recombinant IL4 (Product No. MIL-4C, manufactured by Genzyme) and each concentration (from […]) of the compound of the formula (I) on a microplate with 96 wells by a 10% FCS-RPMI solution (in an incubator, 5% CO2, at 37° C.).
(§2) For the basic procedure of this test, reference was made to The Journal of Immunology, Vol. 136, p. 4538, (1986).
(§3) The amount of each antibody in the cell culture supernatant hereby obtained, was measured by the following enzyme-immunoassay. Firstly, on a microplate with 96 wells, 1 μg/ml of a rabbit anti-mouse IgGl antibody (Product No. 36243, manufactured by Cappel), 1 μg/ml of a goat anti-mouse IgM antibody (Product No. 0611-0201, manufactured by Cappel) or 10 μg/ml of a rat anti-mouse IgE monoclonal antibody (Product No. LO-ME-2, manufactured by Experimental Immunology) was coated (50 μl/well, at room temperature for 60 minutes), and then a nonspecific bond was blocked by a 0.1% bovine serum albumin-containing 10 mM sodium phosphate buffer (pH 7.2) (at room temperature for 60 minutes). Then, the above-mentioned cell culture supernatant or its diluted solution was added in an amount of 50 μl/well and reacted at room temperature for 60 minutes. Further, an alkaline phosphatase-labeled rabbit anti-mouse IgGl antibody (Product No. 61-0122, manufactured by Zymet) diluted 1,000 times, an alkaline phosphatase-labeled rabbit anti-mouse IgM antibody (Product No. 61-6822, manufactured by Zymet) diluted 2,000 times, or an alkaline phosphatase-labeled goat anti-mouse IgE antibody (Product No. PA-284, manufactured by Binding Site) diluted 500 times was added in an amount of 50 μl/well and reacted at room temperature for 60 minutes. 100 μl/well of a 10% diethanol amine buffer solution (pH 9.8) containing p-nitrophenyl phosphate as an enzyme substrate, was reacted, and the absorbance at 405 nm was measured. The amount of each antibody was calculated from the calibration curve of each standard antibody, and the IC50 value of the compound of the formula (I) on the antibody production was calculated using as the control value a value obtained in the absence of the compound of the formula (I).

In assay [3] the test system is IgM antibody production from murine spleen B cells. Nature of the assay: Effects on the IgM antibody production from murine spleen cells (LPS + IL4). In kind it is cell-based, BALB/c mouse. The following applies: Mus musculus, B-cell, 168 h, read-out: IC50 value, IgM antibody production. As to the method:
as §1, §2, §3

The subject of assay [4] is IgE antibody production from murine spleen B cells. Nature of the assay: Effects on the IgE antibody production from murine spleen cells (LPS + IL4). The assay is classed as cell-based, BALB/c mouse. Particulars: Mus musculus, B-cell, 168 h, read-out: IC50 value, IgE antibody production. How it is done:
as §1, §2, §3

The mark [5] stands for this setting: BALB/c thymocytes, Con A 5 μg/ml, 48 hours, 3H-TdR uptake.
Setting [6] is: bone marrow cells, 20% L929 culture supernatant, 48 hours, 3H-TdR uptake, Tables 12-15, read-out: IC50 value, c (murine bone mallow cells).
[7] abbreviates: spleen B cells, LPS 10 μg/ml, IL4 100 U/ml, 7 days, enzyme-immunoassay.

By IC50 is commonly meant the concentration needed to halve the response being measured. On to `S=C(Oc1ccccc1)O[C@H]1C=C[C@H]2CO[C@@H]1O2` [Compound 26], for which the IC50 with murine thymocytes (setting [5]) was 44 µg/mL (≈ 166 µM); in assay [1], 20 µg/mL; in the assay with murine bone mallow cells (setting [6]), 200 µg/mL (≈ 757 µM); in assay [2] (setting [7]), 23 µg/mL; in assay [3] (setting [7]) it was 110 µg/mL; in assay [4] (setting [7]), 4.5 µg/mL.
Turning to `O=C(CCl)O[C@H]1C=C[C@H]2CO[C@@H]1O2` [Compound 10], the IC50 is 1.4 µg/mL (≈ 6.84 µM) with murine thymocytes (setting [5]); 18 µg/mL in assay [1]; 68 µg/mL (≈ 332 µM) in the assay on murine bone mallow cells (setting [6]); under 0.001 µg/mL in assay [2] (setting [7]); under 0.001 µg/mL in assay [3] (setting [7]); under 0.001 µg/mL in assay [4] (setting [7]).
Turning to `CC(C)CC(=O)O[C@H]1C=C[C@H]2CO[C@@H]1O2` [Compound 2, 1,6-anhydro-3,4-dideoxy-2-O-isovaleryl-β-D-threo-hex-3-enopyranose], the IC50 with murine thymocytes (setting [5]) is 350 µg/mL (≈ 1650 µM); in assay [1], 560 µg/mL; in the assay with murine bone mallow cells (setting [6]), over 1000 µg/mL; in assay [2] (setting [7]), 300 µg/mL; in assay [3] (setting [7]) it was 250 µg/mL; in assay [4] (setting [7]), 370 µg/mL.
Regarding `CCCCCCCCCCCCCCCCCCCC(=O)O[C@H]1C=C[C@H]2CO[C@@H]1O2` [Compound 20], the 50% inhibitory concentration (IC50) is 150 µg/mL (≈ 355 µM) in the assay with murine thymocytes (setting [5]); 240 µg/mL in assay [1]; 400 µg/mL (≈ 946 µM) in the assay with murine bone mallow cells (setting [6]); 5.2 µg/mL in assay [2] (setting [7]); 500 µg/mL in assay [3] (setting [7]); 3.2 µg/mL in assay [4] (setting [7]).
With `C[C@]1(O)C=C[C@H]2CO[C@@H]1O2` [Compound 28], the half-inhibitory concentration (IC50) with murine thymocytes (setting [5]) worked out at 76 µg/mL (≈ 535 µM); in assay [1], 280 µg/mL; in the assay with murine bone mallow cells (setting [6]) it was 150 µg/mL (≈ 1060 µM); in assay [2] (setting [7]) it was 380 µg/mL; in assay [3] (setting [7]), 590 µg/mL; in assay [4] (setting [7]), 280 µg/mL.
As for `Cc1ccccc1C(=O)O[C@H]1C=C[C@H]2CO[C@@H]1O2` [Compound 50], the IC50 in the assay with murine thymocytes (setting [5]) was 52 µg/mL (≈ 211 µM); in assay [1], 180 µg/mL; in the assay on murine bone mallow cells (setting [6]), 380 µg/mL (≈ 1540 µM); in assay [2] (setting [7]), under 0.001 µg/mL; in assay [3] (setting [7]), under 0.001 µg/mL; in assay [4] (setting [7]) it was under 0.001 µg/mL.
As to `CC(=O)O[C@H]1C=C[C@H]2CO[C@@H]1O2` [Compound 9], the half-inhibitory concentration (IC50) with murine bone mallow cells (setting [6]) was over 1000 µg/mL; in assay [2] (setting [7]), 790 µg/mL; in assay [3] (setting [7]), 720 µg/mL; in assay [4] (setting [7]) it was 320 µg/mL.
As for `CCCCCCCCCCCCCCCC(=O)O[C@@]1(C)C=C[C@H]2CO[C@@H]1O2` [Compound 33], the IC50 in the assay with murine bone mallow cells (setting [6]) is over 1000 µg/mL; in assay [2] (setting [7]) it was 340 µg/mL; in assay [3] (setting [7]), 5.6 µg/mL; in assay [4] (setting [7]), 460 µg/mL.
Taken in the same sequence, the figures for `CCCCCCCC/C=C\CCCCCCCC(=O)O[C@H]1C=C[C@H]2CO[C@@H]1O2` [Compound 8] were over 1000 µg/mL, 810 µg/mL, 340 µg/mL and 310 µg/mL.
For `Nc1ccccc1C(=O)O[C@H]1C=C[C@H]2CO[C@@H]1O2` [Compound 19], the half-maximal inhibitory concentration (IC50) in the assay on murine thymocytes was 0.39 µg/mL (≈ 1.58 µM); in the assay with murine bone mallow cells (L929, read-out: IC50 value, c (murine bone mallow cells)) it was 160 µg/mL (≈ 647 µM); in assay [2] it was 24 µg/mL; in assay [3], 76 µg/mL; in assay [4], 32 µg/mL.
For the compound `CO[C@H]1C=C[C@H]2CO[C@@H]1O2` [Compound 41, 1,6-anhydro-3,4-dideoxy-2-O-methyl-β-D-threo-hex-3-enopyranose], the concentration for half-maximal inhibition (IC50) with murine bone mallow cells (setting [6]) is over 1000 µg/mL; in assay [2] (setting [7]), 670 µg/mL; in assay [3] (setting [7]), over 1000 µg/mL; in assay [4] (setting [7]), 0.95 µg/mL.
For the compound `COC(=O)O[C@H]1C=C[C@H]2CO[C@@H]1O2` [Compound 21, 1,6-anhydro-3,4-dideoxy-2-O-methoxycarbonyl-β-D-threo-hex-3-enopyranose], the concentration for half-maximal inhibition (IC50) in the assay with murine bone mallow cells (setting [6]) is over 1000 µg/mL; in assay [2] (setting [7]), 500 µg/mL; in assay [3] (setting [7]), 130 µg/mL; in assay [4] (setting [7]), 17 µg/mL.
For the compound `O=C(/C=C/c1ccccc1)O[C@H]1C=C[C@H]2CO[C@@H]1O2` [Compound 18], the IC50 in the assay on murine bone mallow cells (setting [6]) was 370 µg/mL (≈ 1430 µM); in assay [2] (setting [7]) it was under 0.001 µg/mL; in assay [3] (setting [7]), 0.68 µg/mL; in assay [4] (setting [7]), under 0.001 µg/mL.
